Experiments:
[1] = molecular target: T1, α-amylase (EC.3.2.1.1) (Homo sapiens, UniProt P04746); experiment: In vitro α-amylase inhibition (starch/DNS, 540 nm); assay type: biochemical; details: for IC50: test concentrations 2-10 µg, read-out: α-Amylase IC50±SD (converted)
T1 sequence (P04746 16-511): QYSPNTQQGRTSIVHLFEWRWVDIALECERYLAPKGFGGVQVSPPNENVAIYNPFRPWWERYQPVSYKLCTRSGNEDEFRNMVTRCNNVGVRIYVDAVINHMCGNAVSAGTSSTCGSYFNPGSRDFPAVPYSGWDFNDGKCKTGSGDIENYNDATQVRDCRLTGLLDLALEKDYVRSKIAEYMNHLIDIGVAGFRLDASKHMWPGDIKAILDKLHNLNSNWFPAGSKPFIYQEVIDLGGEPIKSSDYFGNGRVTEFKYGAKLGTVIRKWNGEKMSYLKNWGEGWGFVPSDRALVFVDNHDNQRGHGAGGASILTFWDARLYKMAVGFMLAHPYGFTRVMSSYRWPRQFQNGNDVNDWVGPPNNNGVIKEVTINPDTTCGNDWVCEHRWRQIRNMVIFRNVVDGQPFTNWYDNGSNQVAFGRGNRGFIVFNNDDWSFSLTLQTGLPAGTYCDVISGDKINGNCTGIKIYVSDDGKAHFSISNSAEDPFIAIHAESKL
Method: α-Amylase enzyme and other chemical reagents are used for enzyme inhibitory activity. The characterized compounds are diluted in an analytical grad solvent (DMSO) system at 1 mg/mL solution concentration. The activity reaction of the synthesized analogues on the enzyme was treated at final concentrations of 2 to 10 µg. In the interaction between enzyme and compounds, 10 min incubation was maintained before the inhibitory activity started. The enzyme-receptor inhibition efficiency was calculated and compared with the positive control.
Sodium phosphate buffer 0.2 mM (pH 6.9 with 6 × 10^− 4 M NaCl) in 500 µL enzyme solution (0.5 mg/mL) was taken and incubated with test samples (2–10 µg/mL) at room temperature for 10 min. A starch (1%) solution of 500 µL with phosphate buffer was added to all test inhibitor samples; further, the tubes were incubated for 10 min at 28 °C. The reaction test tubes were incubated for another 5 min in the water bath (100 °C) after the addition of the color reagent dinitro salicylic acid and cooled at room temperature until reached. Finally, 10 mL of distilled water was mixed with each test tube, and the colored mixture was measured at a fixed wavelength of 540 nm. The absorbance without sample solution (blank) and control (buffer and standard drug sample) was measured at 540 nm. The α-amylase inhibition efficiency was validated using the following equation:2 [drawing 2]

[2] = DPPH radical scavenging (517 nm); details: for IC50: read-out: DPPH IC50±SD
[3] = ABTS cation radical scavenging (734 nm); details: for IC50: read-out: ABTS IC50±SD
[4] = system: human RBC; experiment: Anti-inflammatory activity: hypotonic solution-induced human RBC hemolysis (560 nm); assay type: cell-based; details: for IC50: induced human RBC hemolysis, read-out: Inflammatory IC50±SD
[5] = MTT cell viability assay; assay type: cell-based; details: mouse, RAW 264.7 macrophage cells, control 100
Method: (§1) The toxicity of the molecule was investigated by the MTT cell viability assay employing RAW macrophage cells. For this study, two lead compounds, 2b and 2e, were screened based on the in vitro results. […] (The OD values in Tables S6 and S7)
(§2) The MTT ((3-(4,5-Dimethylthiazol-2-yl)-2,5-Diphenyltetrazolium Bromide)) assay was employed to determine viability for the synthesized potent compounds 2b and 2e; the cell viability results portray the compounds’ cytotoxicity. The assay was conducted on RAW macrophage cells (RAW 264.7) with various dilutions of 2b and 2e (10, 20, 30, 40, and 50 µM). The results were confirmed with a control.

[6] = system: RAW macrophage cells (RAW 264.7); experiment: MTT cell viability assay; assay type: cell-based; details: for MTT assay Average OD: control average OD 0.924; for Toxicity, outcome of the MTT cell viability assay (in words): RAW macrophage cells
Method: as §1, §2

In the case of COC(=O)/C=C/c1ccc(OC(=O)c2cccnc2)c(OC)c1 [Compound 2b, 2-Methoxy-4-(3-methoxy-3-oxoprop-1-en-1-yl) phenyl nicotinate], the “α-Amylase Inhibition %” value ([1]; 2 µg) is reported as 80.52%, the “α-Amylase Inhibition %” value ([1]; 4 µg) is reported as 80.38% and the “α-Amylase Inhibition %” value ([1]; 6 µg) is reported as 77.01%. For the same compound, the “α-Amylase Inhibition %” value ([1]; 8 µg) was 69.1%, the “α-Amylase Inhibition %” value ([1]; 10 µg) was 54.9% and the IC50 [1] was 4.37 µM. The “DPPH Inhibition %” value ([2]; 20 µM) was 66.2%, the “DPPH Inhibition %” value ([2]; 40 µM) was 86.32% and the “DPPH Inhibition %” value ([2]; 60 µM) was 87.6%. The “DPPH Inhibition %” value ([2]; 80 µM) was 88%, the “DPPH Inhibition %” value ([2]; 100 µM) was 88.4% and the IC50 [2] was 15.63 ± 0.13 µM. The “ABTS Inhibition %” value ([3]; 20 µM) was 59.6%, the “ABTS Inhibition %” value ([3]; 40 µM) was 60.8% and the “ABTS Inhibition %” value ([3]; 60 µM) was 60.9%. For the same compound, the “ABTS Inhibition %” value ([3]; 80 µM) was 61%, the “ABTS Inhibition %” value ([3]; 100 µM) was 61.4% and the IC50 [3] was 19.9 ± 0.25 µM. For the same compound, the inhibition at 20 µM [4] was 60%, the inhibition at 40 µM [4] was 69.9% and the inhibition at 60 µM [4] was 71%. The inhibition at 80 µM [4] was 76%, the inhibition at 100 µM [4] was 85.8% and the IC50 [4] was 18.41 ± 0.13 µM. The viability at 10 µM [5] was 85.4%, the viability at 20 µM [5] was 77.4% and the viability at 30 µM [5] was 68.5%. The viability at 40 µM [5] was 58.8%, the viability at 50 µM [5] was 45.3% and the “MTT assay Triplicate values OD1” value ([6]; 10 µM) was 0.790. For the same compound, the “MTT assay Triplicate values OD2” value ([6]; 10 µM) was 0.792, the “MTT assay Triplicate values OD3” value ([6]; 10 µM) was 0.785 and the “MTT assay Average OD” value ([6]; 10 µM) was 0.789. For the same compound, the “MTT assay Triplicate values OD1” value ([6]; 20 µM) was 0.719, the “MTT assay Triplicate values OD2” value ([6]; 20 µM) was 0.712 and the “MTT assay Triplicate values OD3” value ([6]; 20 µM) was 0.711. The “MTT assay Average OD” value ([6]; 20 µM) was 0.714, the “MTT assay Triplicate values OD1” value ([6]; 30 µM) was 0.634 and the “MTT assay Triplicate values OD2” value ([6]; 30 µM) was 0.629. The “MTT assay Triplicate values OD3” value ([6]; 30 µM) was 0.636, the “MTT assay Average OD” value ([6]; 30 µM) was 0.633 and the “MTT assay Triplicate values OD1” value ([6]; 40 µM) was 0.542. For the same compound, the “MTT assay Triplicate values OD2” value ([6]; 40 µM) was 0.541, the “MTT assay Triplicate values OD3” value ([6]; 40 µM) was 0.546 and the “MTT assay Average OD” value ([6]; 40 µM) was 0.543. The “MTT assay Triplicate values OD1” value ([6]; 50 µM) was 0.418, the “MTT assay Triplicate values OD2” value ([6]; 50 µM) was 0.416 and the “MTT assay Triplicate values OD3” value ([6]; 50 µM) was 0.423. The “MTT assay Average OD” value ([6]; 50 µM) was 0.419 and the “Toxicity, outcome of the MTT cell viability assay (in words)” value [6] was “viable for the cell line”.

With COC(=O)/C=C/c1ccc(OC)c(OC(=O)c2cccnc2)c1 [Compound 2c, 2-Methoxy-5-(3-methoxy-3-oxoprop-1-en-1-yl) phenyl nicotinate] the “DPPH Inhibition %” value ([2]; 20 µM) was 32%, the “DPPH Inhibition %” value ([2]; 40 µM) was 34.9% and the “DPPH Inhibition %” value ([2]; 60 µM) was 36.1%. The “DPPH Inhibition %” value ([2]; 80 µM) was 48%, the “DPPH Inhibition %” value ([2]; 100 µM) was 51.9% and the IC50 [2] was 93.69 ± 0.26 µM. The “ABTS Inhibition %” value ([3]; 20 µM) was 58%, the “ABTS Inhibition %” value ([3]; 40 µM) was 59.7% and the “ABTS Inhibition %” value ([3]; 60 µM) was 59.8%. For the same compound, the “ABTS Inhibition %” value ([3]; 80 µM) was 60%, the “ABTS Inhibition %” value ([3]; 100 µM) was 60% and the IC50 [3] was 20.57 ± 0.13 µM. For the same compound, the inhibition at 20 µM [4] was 48%, the inhibition at 40 µM [4] was 52.9% and the inhibition at 60 µM [4] was 62.5%. For the same compound, the inhibition at 80 µM [4] was 77%, the inhibition at 100 µM [4] was 86% and the IC50 [4] was 27.65 ± 0.2 µM. The “MTT assay Triplicate values OD1” value ([6]; 10 µM) was 0.824, the “MTT assay Triplicate values OD2” value ([6]; 10 µM) was 0.826 and the “MTT assay Triplicate values OD3” value ([6]; 10 µM) was 0.819. The “MTT assay Average OD” value ([6]; 10 µM) was 0.823, the “MTT assay Triplicate values OD1” value ([6]; 20 µM) was 0.754 and the “MTT assay Triplicate values OD2” value ([6]; 20 µM) was 0.753. The “MTT assay Triplicate values OD3” value ([6]; 20 µM) was 0.758, the “MTT assay Average OD” value ([6]; 20 µM) was 0.755 and the “MTT assay Triplicate values OD1” value ([6]; 30 µM) was 0.689. For the same compound, the “MTT assay Triplicate values OD2” value ([6]; 30 µM) was 0.695, the “MTT assay Triplicate values OD3” value ([6]; 30 µM) was 0.692 and the “MTT assay Average OD” value ([6]; 30 µM) was 0.692. The “MTT assay Triplicate values OD1” value ([6]; 40 µM) was 0.596, the “MTT assay Triplicate values OD2” value ([6]; 40 µM) was 0.604 and the “MTT assay Triplicate values OD3” value ([6]; 40 µM) was 0.606. The “MTT assay Average OD” value ([6]; 40 µM) was 0.602, the “MTT assay Triplicate values OD1” value ([6]; 50 µM) was 0.520 and the “MTT assay Triplicate values OD2” value ([6]; 50 µM) was 0.525. The “MTT assay Triplicate values OD3” value ([6]; 50 µM) was 0.518 and the “MTT assay Average OD” value ([6]; 50 µM) was 0.521.

In the case of O=C(NCc1ccc2c(c1)OCO2)c1cccnc1 [Compound 2e, N-(Benzo[1,3]dioxol-5-ylmethyl)nicotinamide], the “α-Amylase Inhibition %” value ([1]; 2 µg) is reported as 86.09%, the “α-Amylase Inhibition %” value ([1]; 4 µg) is reported as 77.3% and the “α-Amylase Inhibition %” value ([1]; 6 µg) is reported as 74.08%. The “α-Amylase Inhibition %” value ([1]; 8 µg) was 72.76%, the “α-Amylase Inhibition %” value ([1]; 10 µg) was 56.22% and the IC50 [1] was 5.17 µM. The “DPPH Inhibition %” value ([2]; 20 µM) was 29.2%, the “DPPH Inhibition %” value ([2]; 40 µM) was 47.1% and the “DPPH Inhibition %” value ([2]; 60 µM) was 49.2%. The “DPPH Inhibition %” value ([2]; 80 µM) was 55.8%, the “DPPH Inhibition %” value ([2]; 100 µM) was 59% and the IC50 [2] was 52.09 ± 0.15 µM. The “ABTS Inhibition %” value ([3]; 20 µM) was 23.4%, the “ABTS Inhibition %” value ([3]; 40 µM) was 27.9% and the “ABTS Inhibition %” value ([3]; 60 µM) was 29.3%. The “ABTS Inhibition %” value ([3]; 80 µM) was 35.4%, the “ABTS Inhibition %” value ([3]; 100 µM) was 43% and the IC50 [3] was 45.63 ± 0.19 µM. The inhibition at 20 µM [4] was 33.6%, the inhibition at 40 µM [4] was 42.8% and the inhibition at 60 µM [4] was 43%. It also gave an inhibition at 80 µM [4] of 48.2%, an inhibition at 100 µM [4] of 60% and an IC50 [4] of 14.1 ± 0.15 µM. For the same compound, the viability at 10 µM [5] was 89.1%, the viability at 20 µM [5] was 81.7% and the viability at 30 µM [5] was 74.8%. The viability at 40 µM [5] was 65.1%, the viability at 50 µM [5] was 56.4% and the “Toxicity, outcome of the MTT cell viability assay (in words)” value [6] was “viable for the cell line”.
